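Cells were grown in 96-well plates and exposed to each compound for 48 hours at five concentrations; endpoints were interpolated linearly between bracketing concentrations, or set to the highest concentration if not reached. TGI marks complete inhibition of growth.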

One experiment deals with HCC-2998 colon. Briefly: inhibition of tumour cell growth, NCI panel, 48 h.
Molecule `C=C1C(=O)C([Si](C)(C)C)=C2C=C(C)C3(CC3)C12C` (stereo unspecified) gave a TGI of 70.2 µM.
In the case of `NC(=O)c1cc2ccccc2oc1=Nc1ccccc1`, the TGI was > 100 µM.

A further experiment has as its system SNB-75 CNS. Briefly: inhibition of tumour cell growth, NCI panel, 48 h.
In the case of `C=C(c1ccccc1)C1ON(C)CCc2cc(OC)c(OC)cc21` (stereo unspecified), the TGI is > 100 µM.
On the same count and under the same terms, in the case of `Cc1c2cnccc2c(C)c2c1[nH]c1ccc(O)cc12` it was 8.09 µM; in that of `NC(=O)c1cc2ccccc2oc1=Nc1ccccc1`, > 100 µM.

In another experiment the test system is SK-OV-3 ovarian. Briefly: inhibition of tumour cell growth, NCI panel, 48 h.
Consider `C=C(c1ccccc1)C1ON(C)CCc2cc(OC)c(OC)cc21` (stereo unspecified), for which the TGI was > 100 µM.
Consider `Cc1c2cnccc2c(C)c2c1[nH]c1ccc(O)cc12`, for which the TGI was > 10 µM.
On the same count and under the same terms, in the case of `NC(=O)c1cc2ccccc2oc1=Nc1ccccc1` it was > 100 µM.

Another experiment relates to KM12 colon. As to the kind of experiment: inhibition of tumour cell growth, NCI panel, 48 h.
In the case of `C=C(c1ccccc1)C1ON(C)CCc2cc(OC)c(OC)cc21` (stereo unspecified), the TGI was > 100 µM.
Regarding `Cc1c2cnccc2c(C)c2c1[nH]c1ccc(O)cc12`, the TGI stood at 2.34 µM.
For the molecule `C=C1C(=O)C([Si](C)(C)C)=C2C=C(C)C3(CC3)C12C` (stereo unspecified), the TGI was > 100 µM.
In the case of `NC(=O)c1cc2ccccc2oc1=Nc1ccccc1`, the TGI was > 100 µM.

The test system of a further experiment is LOX IMVI melanoma. As to the kind of experiment: inhibition of tumour cell growth, NCI panel, 48 h.
For `C=C(c1ccccc1)C1ON(C)CCc2cc(OC)c(OC)cc21` (stereo unspecified), the TGI is > 100 µM.
Same read-out and setting: in the case of `Cc1c2cnccc2c(C)c2c1[nH]c1ccc(O)cc12` it was 1.71 µM; in that of `C=C1C(=O)C([Si](C)(C)C)=C2C=C(C)C3(CC3)C12C` (stereo unspecified), 89 µM; in that of `NC(=O)c1cc2ccccc2oc1=Nc1ccccc1`, > 100 µM.

Another experiment deals with SK-MEL-28 melanoma. As to the kind of experiment: inhibition of tumour cell growth, NCI panel, 48 h.
As to `C=C(c1ccccc1)C1ON(C)CCc2cc(OC)c(OC)cc21` (stereo unspecified), the TGI is > 100 µM.
In turn, `Cc1c2cnccc2c(C)c2c1[nH]c1ccc(O)cc12` registered a TGI of 9.94 µM.
The same measure, in the same setting: in the case of `C=C1C(=O)C([Si](C)(C)C)=C2C=C(C)C3(CC3)C12C` (stereo unspecified) it was > 100 µM; in that of `NC(=O)c1cc2ccccc2oc1=Nc1ccccc1`, > 100 µM.

For the next experiment, the system named is PC-3 prostate. As to the kind of experiment: inhibition of tumour cell growth, NCI panel, 48 h.
As for `C=C(c1ccccc1)C1ON(C)CCc2cc(OC)c(OC)cc21` (stereo unspecified), the TGI was > 100 µM.
Same read-out and setting: in the case of `Cc1c2cnccc2c(C)c2c1[nH]c1ccc(O)cc12` it was > 10 µM; in that of `C=C1C(=O)C([Si](C)(C)C)=C2C=C(C)C3(CC3)C12C` (stereo unspecified), 42.5 µM; in that of `NC(=O)c1cc2ccccc2oc1=Nc1ccccc1`, > 100 µM.

In the next experiment the test system is RPMI-8226 leukemia. Briefly: inhibition of tumour cell growth, NCI panel, 48 h.
Regarding `C=C(c1ccccc1)C1ON(C)CCc2cc(OC)c(OC)cc21` (stereo unspecified), the TGI was > 100 µM.
The same measure, in the same setting: in the case of `Cc1c2cnccc2c(C)c2c1[nH]c1ccc(O)cc12` it was > 10 µM.
The same measure, in the same setting: for `C=C1C(=O)C([Si](C)(C)C)=C2C=C(C)C3(CC3)C12C` (stereo unspecified) the value was 15.3 µM; for `NC(=O)c1cc2ccccc2oc1=Nc1ccccc1`, > 100 µM.

Another experiment deals with SNB-19 CNS. Briefly: inhibition of tumour cell growth, NCI panel, 48 h.
Regarding `C=C(c1ccccc1)C1ON(C)CCc2cc(OC)c(OC)cc21` (stereo unspecified), the TGI is > 100 µM.
On the same count and under the same terms, in the case of `Cc1c2cnccc2c(C)c2c1[nH]c1ccc(O)cc12` it was > 10 µM.
As for `C=C1C(=O)C([Si](C)(C)C)=C2C=C(C)C3(CC3)C12C` (stereo unspecified), the TGI is > 100 µM.
Same read-out and setting: for `NC(=O)c1cc2ccccc2oc1=Nc1ccccc1` the value was > 100 µM.

The next experiment has as its system K-562 leukemia. As to the kind of experiment: inhibition of tumour cell growth, NCI panel, 48 h.
For the molecule `C=C(c1ccccc1)C1ON(C)CCc2cc(OC)c(OC)cc21` (stereo unspecified), the TGI is > 100 µM.
Still for that read-out and setting: for `Cc1c2cnccc2c(C)c2c1[nH]c1ccc(O)cc12` the value was > 10 µM; for `C=C1C(=O)C([Si](C)(C)C)=C2C=C(C)C3(CC3)C12C` (stereo unspecified), 54.1 µM; for `NC(=O)c1cc2ccccc2oc1=Nc1ccccc1`, > 100 µM.

In a further experiment the test system is SN12C renal. As to the kind of experiment: inhibition of tumour cell growth, NCI panel, 48 h.
Turning to `C=C(c1ccccc1)C1ON(C)CCc2cc(OC)c(OC)cc21` (stereo unspecified), the TGI is > 100 µM.
On the same count and under the same terms, in the case of `Cc1c2cnccc2c(C)c2c1[nH]c1ccc(O)cc12` it was 7.35 µM; in that of `C=C1C(=O)C([Si](C)(C)C)=C2C=C(C)C3(CC3)C12C` (stereo unspecified), > 100 µM.
On the same count and under the same terms, in the case of `NC(=O)c1cc2ccccc2oc1=Nc1ccccc1` it was > 100 µM.

The subject of another experiment is HT29 colon. Briefly: inhibition of tumour cell growth, NCI panel, 48 h.
As for `C=C(c1ccccc1)C1ON(C)CCc2cc(OC)c(OC)cc21` (stereo unspecified), the TGI is > 100 µM.
The same measure, in the same setting: for `Cc1c2cnccc2c(C)c2c1[nH]c1ccc(O)cc12` the value was > 10 µM.
With `C=C1C(=O)C([Si](C)(C)C)=C2C=C(C)C3(CC3)C12C` (stereo unspecified), the TGI came out at 48.7 µM.
The same measure, in the same setting: for `NC(=O)c1cc2ccccc2oc1=Nc1ccccc1` the value was > 100 µM.

The next experiment deals with MDA-MB-435. Briefly: inhibition of tumour cell growth, NCI panel, 48 h.
`C=C(c1ccccc1)C1ON(C)CCc2cc(OC)c(OC)cc21` (stereo unspecified): the TGI is > 100 µM.
Regarding `Cc1c2cnccc2c(C)c2c1[nH]c1ccc(O)cc12`, the TGI was 8.73 µM.
Same read-out and setting: for `C=C1C(=O)C([Si](C)(C)C)=C2C=C(C)C3(CC3)C12C` (stereo unspecified) the value was 64.3 µM.
Still for that read-out and setting: in the case of `NC(=O)c1cc2ccccc2oc1=Nc1ccccc1` it was > 100 µM.

The subject of a further experiment is RXF 393 renal. As to the kind of experiment: inhibition of tumour cell growth, NCI panel, 48 h.
Take `C=C(c1ccccc1)C1ON(C)CCc2cc(OC)c(OC)cc21` (stereo unspecified): the TGI is > 100 µM.
In turn, `Cc1c2cnccc2c(C)c2c1[nH]c1ccc(O)cc12` registered a TGI of 7.24 µM.
Still for that read-out and setting: in the case of `C=C1C(=O)C([Si](C)(C)C)=C2C=C(C)C3(CC3)C12C` (stereo unspecified) it was 60.5 µM; in that of `NC(=O)c1cc2ccccc2oc1=Nc1ccccc1`, > 100 µM.

The next experiment deals with IGROV1 ovarian. Briefly: inhibition of tumour cell growth, NCI panel, 48 h.
As to `C=C(c1ccccc1)C1ON(C)CCc2cc(OC)c(OC)cc21` (stereo unspecified), the TGI was > 100 µM.
Same read-out and setting: in the case of `Cc1c2cnccc2c(C)c2c1[nH]c1ccc(O)cc12` it was > 10 µM; in that of `C=C1C(=O)C([Si](C)(C)C)=C2C=C(C)C3(CC3)C12C` (stereo unspecified), > 100 µM.
On the same count and under the same terms, for `NC(=O)c1cc2ccccc2oc1=Nc1ccccc1` the value was > 100 µM.

Values taken from PubChem BioAssay (NCI).
